Experimental data reported in patent US8999990B2, “Inhibitors of the renal outer medullary potassium channel” (Merck Sharp & Dohme Corp., priority 2011, dated 2015).
pIC50: −log10 of the molar value. Read-outs that look alike come from different tables or passages of the source.

Molecular target: T1, hROMK (hKir1.1) (Homo sapiens, UniProt P48048)
T1 construct: expressed in transfected cells
T1 sequence (P48048 1-391): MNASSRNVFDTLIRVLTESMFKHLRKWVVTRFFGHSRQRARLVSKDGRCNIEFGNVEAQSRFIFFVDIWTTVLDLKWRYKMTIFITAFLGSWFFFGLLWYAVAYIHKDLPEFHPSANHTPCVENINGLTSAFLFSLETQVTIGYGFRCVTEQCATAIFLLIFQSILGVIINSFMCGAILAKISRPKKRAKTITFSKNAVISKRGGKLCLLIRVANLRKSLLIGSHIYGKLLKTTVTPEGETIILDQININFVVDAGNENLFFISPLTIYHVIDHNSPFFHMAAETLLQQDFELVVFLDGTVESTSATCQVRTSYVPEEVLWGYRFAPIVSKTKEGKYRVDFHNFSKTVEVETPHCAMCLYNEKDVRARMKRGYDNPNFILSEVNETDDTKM
Test: Thallium Flux Assay
Type: cell-based
Method: Several assays may be used to measure functional inhibition of the ROMK channel by compounds of the instant invention. One assay that was used to test the activity of compounds in the Examples is the functional ^86Rb^+ efflux assay described below, that measures the ability of ROMK to permeate ^86Rb^+, in the absence or presence of test compound. Under control conditions, cells loaded with ^86Rb^+ and incubated in Rb^+-free medium display a time-dependent efflux of the isotope, the rate of which depends on number of functional channels. When cells are incubated in the presence of a channel inhibitor, efflux of ^86Rb^+ is prevented in a concentration-dependent manner, and IC50 values of inhibition by compounds can be accurately determined. This assay has been established with cell lines expressing either human, rat or dog ROMK channels, and can operate in 96- or 384-well format. Importantly, the human, rat, and dog ^86Rb^+ efflux assays can be carried out in the presence of up to 100% serum allowing, therefore, an accurate estimation of the effect of protein binding on the inhibitory activity of compounds of interest. Another ROMK functional assay used to test the activity of compounds in the Examples (described below) makes use of the ability of thallium to permeate through open ROMK channels and increase the fluorescence of a dye previously loaded into the cells. Under control conditions, cells loaded with dye and exposed to thallium-containing medium display a time-dependent increase in fluorescence, the rate of which depends on number of functional channels. When cells are incubated in the presence of a channel inhibitor, the increase in fluorescence is attenuated in a concentration-dependent manner, and IC50 values of inhibition by compounds can be accurately determined. This assay has been established with cell lines expressing either human, or rat ROMK channels, and operates in 384-well format.
HEK293 cells stably expressing hROMK (hKir1.1) were grown at 37° C. in a 10% CO2 humidified incubator in complete growth media: Dulbecco's Modified Eagle Medium supplemented with non-essential amino acids, Penicillin/Streptomycin/Glutamine, G418 and FBS. At >80% confluency, aspirate the media from the flask and rinse with 10 mL Calcium/Magnesium-free PBS. Add 5 mL of 1× trypsin (prepared in Ca/Mg Free PBS) to T-225 flask and return flask to 37° C./CO2 incubator for 2-3 minutes. To dislodge the cell, gently bang the side of the flask with your hand. Triturate the cells completely and then transfer the cells to 25 mL complete media. Centrifuge at 1,500 rpm for 6 min followed by resuspension in complete growth media and determine cell concentration. For typical re-seeding, 4E6 cells/T-225 flask will attain >80% confluency in 4 days. Under ideal growth conditions and appropriate tissue culture practices, this cell line is stable for 40-45 passages.
• FluxOR™ Reagent (Component A) • FluxOR™ Assay Buffer (Component B)—10× Concentrate • PowerLoad™ Concentrate (Component C)—100× Concentrate • Probenecid (Component D)—Lyophilized sample is kept at −20° C. Water soluble, 100× after solubilization in 1 mL water. […] Store at 4° C. • Thallium sulfate (Tl2SO4) Concentrate (Component G)—50 mM in water. […]

[1] = HEK293 cells stably expressing hROMK, FLIPR-Tetra, 384 wells, read-out: Thallium Flux IC50

| SMILES | pIC50 [1] | pIC50 (text of Example 55, separated stereo-isomer, read-out: IC50 in the Thallium Flux Assay) | potency in the Thallium Flux Assay compared with Isomer A (text of Example 55, separated stereo-isomers) |
| --- | --- | --- | --- |
| Cc1c(CCN2CCN(CCc3ccc(C#N)cn3)C(=O)C2)ccc2c1COC2=O [Example 54, 6-(2-{4-[2-(4-Methyl-1-oxo-1,3-dihydro-2-benzofuran-5-yl)ethyl]-2-oxopiperazin-1-yl}ethyl)pyridine-3-carbonitrile] | 6.11 | – | – |
| Cc1c(C(O)CN2CCN(C[C@@H](O)c3ccc4c(c3C)COC4=O)CC2=O)ccc2c1COC2=O (stereo partly drawn) [Example 46, 4-[(2S)-2-Hydroxy-2-(4-methyl-1-oxo-1,3-dihydro-2-benzofuran-5-yl)ethyl]-1-[2-hydroxy-2-(4-methyl-1-oxo-1,3-dihydro-2-benzofuran-5-yl)ethyl]piperazin-2-one] | 6.57 | – | – |
| Cc1c(CCN2CCN(C[C@H](O)c3ccc4c(c3C)COC4=O)CC2=O)ccc2c1COC2=O [Example 52, 4-[(2R)-2-hydroxy-2-(4-methyl-1-oxo-1,3-dihydro-2-benzofuran-5-yl)ethyl]-1-[2-(4-methyl-1-oxo-1,3-dihydro-2-benzofuran-5-yl)ethyl]piperazin-2-one] | 6.63 | – | – |
| Cc1c(CCN2CCN(C[C@@H](O)c3ccc4c(c3C)COC4=O)CC2=O)ccc2c1COC2=O [Example 53, 4-[(2S)-2-hydroxy-2-(4-methyl-1-oxo-1,3-dihydro-2-benzofuran-5-yl)ethyl]-1-[2-(4-methyl-1-oxo-1,3-dihydro-2-benzofuran-5-yl)ethyl]piperazin-2-one] | 6.18 | – | – |
| Cc1cc2c(cc1C(O)CN1CCN(C3CCc4cc(C#N)ccc4C3)C(=O)C1)COC2=O (stereo not shown) [Example 49, 6-{4-[2-Hydroxy-2-(6-methyl-1-oxo-1,3-dihydro-2-benzofuran-5-yl)ethyl]-2-oxopiperazin-1-yl}-5,6,7,8-tetrahydronaphthalene-2-carbonitrile] | 7.05 | – | – |
| Cc1c(C(O)CN2CCN(CCc3ccc(C#N)cn3)C(=O)C2)ccc2c1COC2=O (single isomer, unassigned) [Isomer A, 6-(2-{4-[2-Hydroxy-2-(4-methyl-1-oxo-1,3-dihydro-2-benzofuran-5-yl)ethyl]-2-oxopiperazin-1-yl}ethyl)pyridine-3-carbonitrile] | – | < 6.00 | – |
| Cc1c(C(O)CN2CCN(CCc3ccc(C#N)cn3)C(=O)C2)ccc2c1COC2=O (single isomer, unassigned) [Example 55, 6-(2-{4-[2-Hydroxy-2-(4-methyl-1-oxo-1,3-dihydro-2-benzofuran-5-yl)ethyl]-2-oxopiperazin-1-yl}ethyl)pyridine-3-carbonitrile] | 6.51 | – | more potent |
| COc1ccc(C(=O)CN2CCN(C[C@H](O)c3ccc4c(c3C)COC4=O)CC2=O)c(C)c1C#N [Example 50, 3-({4-[(2R)-2-Hydroxy-2-(4-methyl-1-oxo-1,3-dihydro-2-benzofuran-5-yl)ethyl]-2-oxopiperazin-1-yl}acetyl)-6-methoxy-2-methylbenzonitrile] | 6.71 | – | – |
| Cc1c(C(O)CN2CCN(C[C@H](O)c3ccc4c(c3C)COC4=O)CC2=O)ccc2c1COC2=O (stereo partly drawn) [Example 45, 4-[(2R)-2-Hydroxy-2-(4-methyl-1-oxo-1,3-dihydro-2-benzofuran-5-yl)ethyl]-1-[2-hydroxy-2-(4-methyl-1-oxo-1,3-dihydro-2-benzofuran-5-yl)ethyl]piperazin-2-one] | 6.17 | – | – |
| Cc1c(C(=O)CN2CCN(C[C@H](O)c3ccc4c(c3C)COC4=O)CC2=O)ccc2c1COC2=O [Example 48, 4-[(2R)-2-Hydroxy-2-(4-methyl-1-oxo-1,3-dihydro-2-benzofuran-5-yl)ethyl]-1-[2-(4-methyl-1-oxo-1,3-dihydro-2-benzofuran-5-yl)-2-oxoethyl]piperazin-2-one] | 7.10 | – | – |
| Cc1c(C(=O)CN2CCN(C[C@H](O)c3ccc4c(c3C)COC4=O)CC2=O)ccc(F)c1C#N [Example 51, 6-Fluoro-3-({4-[(2R)-2-hydroxy-2-(4-methyl-1-oxo-1,3-dihydro-2-benzofuran-5-yl)ethyl]-2-oxopiperazin-1-yl}acetyl)-2-methylbenzonitrile] | 6.90 | – | – |
| Cc1c([C@@H](O)CN2CCN(C3CCc4cc(C#N)ccc4C3)C(=O)C2)ccc2c1COC2=O (stereo partly drawn) [Example 47, 6-{4-[(2R)-2-Hydroxy-2-(4-methyl-1-oxo-1,3-dihydro-2-benzofuran-5-yl)ethyl]-2-oxopiperazin-1-yl}-5,6,7,8-tetrahydronaphthalene-2-carbonitrile] | 7.22 | – | – |
